# Laboratory results reported in patent US8574831B2, “Mutational profiles in HIV-1 reverse transcriptase correlated with phenotypic drug resistance” (Virco N.V., priority 2000, dated 2013).
# Test system: HIV with mutations in the HIV protease sequence
# Test: Phenotypic fold resistance to protease inhibitors, protease mutations 84A/84L/84C/54M/54L/54V in a background (Examples 8-13)
# Type: cell-based, HIV-1
# Method: As is the case with the genotyping assays, the recombinant virus assay starts with the amplification of viral target sequences by means of PCR. The amplicons are incorporated into a proviral laboratory clone with sequences homologous to those present in the amplicon deleted. This generates a stock of chimeric viruses. The viruses are tested for their ability to grow in the presence of different concentrations of drugs. Results are obtained by calculating IC50 values for each inhibitor and by reporting the results as IC50 values, expressed in μM concentrations, or by computing the ratio of the IC50 values found for the chimeric virus to the IC50 values found for a wild type susceptible laboratory virus tested in parallel. In the latter case, resistance is expressed as “fold-resistance” compared to a wild-type susceptible HIV-1 strain. In order to meet the need for high-volume testing and a short turn-around time for an individual test, the latest generation of phenotyping assays has undergone further modifications. The use of reporter gene systems for susceptibility testing allows the implementation of laboratory automation and standardization. See Pauwels, et al., J. Virol. Methods 20, 309-321 (1998); Paulous, S., et al., International Workshop on HIV Drug Resistance, Treatment Strategies and Eradication, St. Petersburg, Fla., USA. Abstr. 46 (1997); and Deeks, S. G., et al., 2nd International Workshop on HIV Drug Resistance and Treatment Strategies, Lake Maggiore, Italy. Abstr. 53 (1998).
# The ANTIVIROGRAM® assay (Virco) (WO 97/27480) is based on homologous recombination of patient derived HIV-1 gag/PR/RT sequences into a proviral HIV-1 clone correspondingly deleted for the gag/PR/RT sequences. See Pauwels, et al., J. Virol. Methods 20, 309-321 (1998). A similar assay (Phenosense ViroLogic) is based on enzymatic ligation of patient-derived PR/RT sequences into a correspondingly deleted proviral vector carrying an indicator gene, luciferase, inserted in the deleted HIV-1 envelope gene. See Deeks, S. G., et al., 2nd International Workshop on HIV Drug Resistance and Treatment Strategies, Lake Maggiore, Italy. Abstr. 53 (1998). Hertogs et al. Antimicrob. Agents Chemother. 44(3) 568-573 (2000) the disclosures of which are herein incorporated by reference.
# The methods of monitoring HIV-1 drug resistance, may also be used in combination with phenotypic drug resistance testing of viral isolates. For example, in one embodiment, a phenotypic test is utilized that is based upon the construction of chimeric HIV-1 strains composed of the protease (PR) and reverse transcriptase (RT) gene sequences which are isolated and amplified from the patient viral RNA. These strains may subsequently be recombined inside CD4+ T cells with a standard laboratory isogenic (HXB2) HIV-1 DNA construct from which the PR/RT gene sequences were deleted. The recombinant strains may then be grown in the presence of the above-mentioned antiviral drugs and the susceptibility of the viral isolates may be expressed as fold-change value of the IC50 of the drug on the patient isolates over the IC50 of the drug on a wild-type laboratory reference strain.
smiles,measurement,setting,value
"Cc1c(O)cccc1C(=O)N[C@@H](CSc1ccccc1)[C@H](O)CN1C[C@H]2CCCC[C@H]2C[C@H]1C(=O)NC(C)(C)C [Nelfinavir, nelfinavir]",mean fold increase in resistance,"Table 9 #1, protease genotype WT",0.7 fold
same,mean fold increase in resistance,"Table 9 #2, protease genotype 10I",1 fold
same,mean fold increase in resistance,"Table 9 #3, protease genotype 46I",1.5 fold
same,mean fold increase in resistance,"Table 9 #4, protease genotype 46I + 84V",5.6 fold
same,mean fold increase in resistance,"Table 9 #5, protease genotype 46I + 84A",61.9 fold
same,mean fold increase in resistance,"Table 9 #6, protease genotype 10I + 46I",0.8 fold
same,mean fold increase in resistance,"Table 9 #7, protease genotype 10I + 46I + 84V",3.1 fold
same,mean fold increase in resistance,"Table 9 #8, protease genotype 10I + 46I + 84A",43.9 fold
same,mean fold increase in resistance,"Table 9 #9, protease genotype 10L/I + 46I + 84A",56.2 fold
same,mean fold increase in resistance,"Table 9 #10, protease genotype 10I + 46I + 84A",36.9 fold
same,mean fold increase in resistance,"Table 9 #11, protease genotype 46I + 71V",1 fold
same,mean fold increase in resistance,"Table 9 #12, protease genotype 46I + 71V + 84V/I",0.7 fold
same,mean fold increase in resistance,"Table 9 #13, protease genotype 46I + 71V + 84A",59.9 fold
same,mean fold increase in resistance,"Table 9 #14, protease genotype 10F + 46I + 71V",45.2 fold
same,mean fold increase in resistance,"Table 9 #15, protease genotype 10I + 46I + 71V + 84V",57.1 fold
same,mean fold increase in resistance,"Table 9 #16, protease genotype 10I + 46I + 71V + 84A",54.9 fold
same,mean fold increase in resistance,"Table 9 #17, protease genotype 10V + 46I + 71T + 84A",51.2 fold
same,mean fold increase in resistance,"Table 9 #18, protease genotype 10I + 46I + 71V + 77I",6.1 fold
same,mean fold increase in resistance,"Table 9 #19, protease genotype 10I + 46I + 71V + 77I + 84V",2.8 fold
same,mean fold increase in resistance,"Table 9 #20, protease genotype 10I + 46I + 71V + 77I + 84A",68.6 fold
same,mean fold increase in resistance,"Table 9 #21, protease genotype 10I + 33L/I + 46I + 71V + 77V/I + 84A",63.1 fold
same,mean fold increase in resistance,"Table 10 #1, protease genotype 10I + 36I + 71V",1.5 fold
same,mean fold increase in resistance,"Table 10 #2, protease genotype 10I + 36I + 71I + 84V",0.8 fold
same,mean fold increase in resistance,"Table 10 #3, protease genotype 10I + 36I + 71I + 84L",39.4 fold
same,mean fold increase in resistance,"Table 11 #1, protease genotype WT",0.7 fold
same,mean fold increase in resistance,"Table 11 #2, protease genotype 84V",0.9 fold
same,mean fold increase in resistance,"Table 11 #3, protease genotype 84C",51.2 fold
same,mean fold increase in resistance,"Table 11 #4, protease genotype 10I",1.0 fold
same,mean fold increase in resistance,"Table 11 #5, protease genotype 10I + 84V",2.0 fold
same,mean fold increase in resistance,"Table 11 #6, protease genotype 10I + 84C",61.9 fold
same,mean fold increase in resistance,"Table 11 #7, protease genotype 77I",0.9 fold
same,mean fold increase in resistance,"Table 11 #8, protease genotype 77I + 84V",2.8 fold
same,mean fold increase in resistance,"Table 11 #9, protease genotype 77I + 84C",61.9 fold
same,mean fold increase in resistance,"Table 11 #10, protease genotype 77I + 84C",38.2 fold
same,mean fold increase in resistance,"Table 11 #11, protease genotype 10I + 24I + 36I + 46I + 71V + 84C",51.7 fold
same,Fold change in IC50,"Table 12, V19263, genotype 77I",0.9 fold
same,Fold change in IC50,"Table 12, V20160, genotype WT",0.7 fold
same,Fold change in IC50,"Table 12, V021667, genotype 10I",1.0 fold
same,Fold change in IC50,"Table 12, V030496, genotype 10I + 77I",0.7 fold
same,Fold change in IC50,"Table 12, V048869, genotype 10I + 54M + 77I + 90M",28.5 fold
same,Fold change in IC50,"Table 12, V048872, genotype 33F + 54M + 77I + 90M",7.4 fold
same,Fold change in IC50,"Table 12, V048873, genotype 33F + 54M + 77I + 90M",7.7 fold
same,Fold change in IC50,"Table 12, V048877, genotype 10I + 33F + 77I + 90M",9.4 fold
same,Fold change in IC50,"Table 12, V048878, genotype 10I + 33F + 54M + 71V + 77I + 90M",7.3 fold
same,Fold change in IC50,"Table 12, V048879, genotype 10I + 33F + 54M + 71V + 77I + 90M",45.7 fold
same,Fold change in IC50,"Table 12, V048880, genotype 10I + 33F + 77I + 90M",4.9 fold
same,Fold change in IC50,"Table 12, V052940, genotype 71V",0.6 fold
same,Fold change in IC50,"Table 12, V052942, genotype 10I + 71V",0.9 fold
same,Fold change in IC50,"Table 12, V052943, genotype 10I + 90M",2.2 fold
same,Fold change in IC50,"Table 12, V052944, genotype 10I + 90M",1.4 fold
same,Fold change in IC50,"Table 12, V052945, genotype 77I + 90M",3.0 fold
same,Fold change in IC50,"Table 12, V052946, genotype 71V + 90M",3.0 fold
same,Fold change in IC50,"Table 12, V052947, genotype 10I + 77I + 90M",8.2 fold
same,Fold change in IC50,"Table 12, V052948, genotype 10I + 71V + 90M",9.0 fold
same,Fold change in IC50,"Table 12, V052949, genotype 10I + 71V + 77I + 90M",8.6 fold
same,Fold change in IC50,"Table 12, V052950, genotype 33F",1.0 fold
same,Fold change in IC50,"Table 12, V052951, genotype 33F + 77I",5.2 fold
same,Fold change in IC50,"Table 12, V052953, genotype 10I + 33F + 77I",0.9 fold
same,Fold change in IC50,"Table 12, V052954, genotype 33F + 77I + 90M",5.9 fold
same,Fold change in IC50,"Table 12, V052955, genotype 33F + 71V + 90M",36.6 fold
same,Fold change in IC50,"Table 12, V052977, genotype 10I + 33F + 54M",3.8 fold
same,Fold change in IC50,"Table 12, V052978, genotype 10I + 33F + 54M + 71V + 90M",29.1 fold
same,Fold change in IC50,"Table 12, V052979, genotype 10I + 54M",3.8 fold
same,Fold change in IC50,"Table 12, V052980, genotype 10I + 54M + 90M",7.0 fold
same,Fold change in IC50,"Table 12, V052981, genotype 10I + 54M + 71V + 90M",8.7 fold
same,Fold change in IC50,"Table 12, V052982, genotype 10I + 54M + 71V + 77I + 90M",10.1 fold
same,Fold change in IC50,"Table 12, V053832, genotype 10I + 33F",1.6 fold
